How the values were obtained:
[1] = Chemisorption to aluminum hydroxide ("Alum") quantified by liquid chromatography-mass spectrometry; type: physicochemical
Source text: Chemisorption was quantified by liquid chromatography-mass spectrometry. When appropriate ratios of the adjuvant and aluminum hydroxide are used, all of the adjuvant is bound to alum. This ensures delivery of the adjuvant to the draining lymph nodes, and minimizes systemic exposure. It is important not to exceed the ratio to avoid the presence of excess small molecule adjuvant. […] The ratio can range from 1:10 (mg Compound 1:mL aluminum hydroxide gel) to 10:1, or from 1:8 to 8:1, or 1:5 to 5:1; or 1:2 to 2:1, or about 1:1.
The Compound is chemisorbed onto aluminum hydroxide to form an adjuvant complex referred to herein as (“Alhydroxiquim-II”). The trihydroxybenzyl appendage of the adjuvant Compound 1 ligand-exchanges with the hydroxyl groups of aluminum hydroxide (chemisorption). When appropriate ratios of the adjuvant and aluminum hydroxide are used, all of the adjuvant is bound to alum. This ensures delivery of the adjuvant to the draining lymph nodes, and minimizes systemic exposure. It is important not to exceed the ratio to avoid the presence of excess small molecule adjuvant.
Chemisorption was quantified by liquid chromatography-mass spectrometry.

[2] = human trials; cited from earlier work
[3] = 10 mg of the small-molecule to 10 mL of standard Alhydrogel (10 mg of aluminum content/mL)

Structure (SMILES)	binding to aluminum hydroxide gel (Alhydrogel) [1, 3]	concentrations of free small molecule [1, 3]	chemisorption to “Alum” ([1]; quantified by LC-MS, FIG. 2)	tolerability (systemic side effects including fever, headache, malaise, and myalgia) [2]
CCCCc1nc2c(N)nc3ccccc3c2n1Cc1cccc(CNC(=O)c2cc(O)c(O)c(O)c2)c1 [Compound 1, N-(3-((4-amino-2-butyl-1H-imidazo[4,5-c]quinolin-1-yl)methyl)benzyl)-3,4,5-trihydroxybenzamide]	complete binding	undetectable	saturable	
CCOCc1nc2c(N)nc3ccccc3c2n1CC(C)(C)O [Resiquimod]				poorly tolerated

From patent US12564630B2, “Vaccine adjuvants” (priority 2020, dated 2026)
